# Assay results as given in PubChem BioAssay (NCI).
#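 Five concentrations, 48 hours, 96-well plates. TGI denotes the concentration required for complete inhibition of growth.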
# How the values were obtained:
# Assay in all cases: NCI anticancer screen, dose series, 48 h
# 786-0 renal = system: 786-0 renal
# A498 renal = system: A498 renal
# A549 NSCLC = system: A549 NSCLC
# ACHN renal = system: ACHN renal
# BT-549 breast = system: BT-549 breast
# CAKI-1 renal = system: CAKI-1 renal
# CCRF-CEM leukemia = system: CCRF-CEM leukemia
# COLO 205 colon = system: COLO 205 colon
# DU-145 prostate = system: DU-145 prostate
# EKVX NSCLC = system: EKVX NSCLC
# HCC-2998 colon = system: HCC-2998 colon
# HCT-116 colon = system: HCT-116 colon
# HCT-15 colon = system: HCT-15 colon
# HL-60(TB) leukemia = system: HL-60(TB) leukemia
# HOP-62 NSCLC = system: HOP-62 NSCLC
# HOP-92 NSCLC = system: HOP-92 NSCLC
# HS 578T breast = system: HS 578T breast
# HT29 colon = system: HT29 colon
# IGROV1 ovarian = system: IGROV1 ovarian
# K-562 leukemia = system: K-562 leukemia
# KM12 colon = system: KM12 colon
# LOX IMVI melanoma = system: LOX IMVI melanoma
# M14 melanoma = system: M14 melanoma
# MALME-3M melanoma = system: MALME-3M melanoma
# MCF7 breast = system: MCF7 breast
# MDA-MB-231 breast = system: MDA-MB-231 breast
# MDA-MB-435 = system: MDA-MB-435
# MDA-N = system: MDA-N
# MOLT-4 leukemia = system: MOLT-4 leukemia
# NCI-H226 lung = system: NCI-H226 lung
# NCI-H23 lung = system: NCI-H23 lung
# NCI-H460 lung = system: NCI-H460 lung
# NCI-H522 lung = system: NCI-H522 lung
# NCI/ADR-RES ovarian = system: NCI/ADR-RES ovarian
# OVCAR-3 ovarian = system: OVCAR-3 ovarian
# OVCAR-4 ovarian = system: OVCAR-4 ovarian
# OVCAR-5 ovarian = system: OVCAR-5 ovarian
# OVCAR-8 ovarian = system: OVCAR-8 ovarian
# PC-3 prostate = system: PC-3 prostate
# RPMI-8226 leukemia = system: RPMI-8226 leukemia
# RXF 393 renal = system: RXF 393 renal
# SF-268 CNS = system: SF-268 CNS
# SF-295 CNS = system: SF-295 CNS
# SF-539 CNS = system: SF-539 CNS
# SK-MEL-2 melanoma = system: SK-MEL-2 melanoma
# SK-MEL-28 melanoma = system: SK-MEL-28 melanoma
# SK-MEL-5 melanoma = system: SK-MEL-5 melanoma
# SK-OV-3 ovarian = system: SK-OV-3 ovarian
# SN12C renal = system: SN12C renal
# SNB-19 CNS = system: SNB-19 CNS
# SNB-75 CNS = system: SNB-75 CNS
# SW-620 colon = system: SW-620 colon
# T-47D breast = system: T-47D breast
# TK-10 renal = system: TK-10 renal
# U251 CNS = system: U251 CNS
# UACC-257 melanoma = system: UACC-257 melanoma
# UACC-62 melanoma = system: UACC-62 melanoma
# UO-31 renal = system: UO-31 renal
# SR leukemia = system: SR leukemia
smiles,measurement,setting,value
c1ccc2c(c1)Cn1c-2nc2ccccc21,TGI,786-0 renal,> 100 µM
same,TGI,A498 renal,> 100 µM
same,TGI,A549 NSCLC,> 100 µM
same,TGI,ACHN renal,> 100 µM
same,TGI,BT-549 breast,> 100 µM
same,TGI,CAKI-1 renal,> 100 µM
same,TGI,CCRF-CEM leukemia,> 100 µM
same,TGI,COLO 205 colon,> 100 µM
same,TGI,DU-145 prostate,> 100 µM
same,TGI,EKVX NSCLC,> 100 µM
same,TGI,HCC-2998 colon,> 100 µM
same,TGI,HCT-116 colon,> 100 µM
same,TGI,HCT-15 colon,> 100 µM
same,TGI,HL-60(TB) leukemia,> 100 µM
same,TGI,HOP-62 NSCLC,> 100 µM
same,TGI,HOP-92 NSCLC,> 100 µM
same,TGI,HS 578T breast,> 100 µM
same,TGI,HT29 colon,> 100 µM
same,TGI,IGROV1 ovarian,> 100 µM
same,TGI,K-562 leukemia,> 100 µM
same,TGI,KM12 colon,> 100 µM
same,TGI,LOX IMVI melanoma,> 100 µM
same,TGI,M14 melanoma,> 100 µM
same,TGI,MALME-3M melanoma,> 100 µM
same,TGI,MCF7 breast,> 100 µM
same,TGI,MDA-MB-231 breast,> 100 µM
same,TGI,MDA-MB-435,> 100 µM
same,TGI,MDA-N,> 100 µM
same,TGI,MOLT-4 leukemia,> 100 µM
same,TGI,NCI-H226 lung,> 100 µM
same,TGI,NCI-H23 lung,> 100 µM
same,TGI,NCI-H460 lung,> 100 µM
same,TGI,NCI-H522 lung,> 100 µM
same,TGI,NCI/ADR-RES ovarian,> 100 µM
same,TGI,OVCAR-3 ovarian,> 100 µM
same,TGI,OVCAR-4 ovarian,> 100 µM
same,TGI,OVCAR-5 ovarian,> 100 µM
same,TGI,OVCAR-8 ovarian,> 100 µM
same,TGI,PC-3 prostate,> 100 µM
same,TGI,RPMI-8226 leukemia,> 100 µM
same,TGI,RXF 393 renal,> 100 µM
same,TGI,SF-268 CNS,> 100 µM
same,TGI,SF-295 CNS,> 100 µM
same,TGI,SF-539 CNS,> 100 µM
same,TGI,SK-MEL-2 melanoma,> 100 µM
same,TGI,SK-MEL-28 melanoma,> 100 µM
same,TGI,SK-MEL-5 melanoma,> 100 µM
same,TGI,SK-OV-3 ovarian,> 100 µM
same,TGI,SN12C renal,> 100 µM
same,TGI,SNB-19 CNS,> 100 µM
same,TGI,SNB-75 CNS,73.3 µM
same,TGI,SW-620 colon,> 100 µM
same,TGI,T-47D breast,> 100 µM
same,TGI,TK-10 renal,> 100 µM
same,TGI,U251 CNS,> 100 µM
same,TGI,UACC-257 melanoma,> 100 µM
same,TGI,UACC-62 melanoma,> 100 µM
same,TGI,UO-31 renal,23 µM
N=c1nnc2ccc(Cl)cc2n1O,TGI,A498 renal,> 100 µM
same,TGI,ACHN renal,> 100 µM
same,TGI,BT-549 breast,> 100 µM
same,TGI,CAKI-1 renal,> 100 µM
same,TGI,CCRF-CEM leukemia,> 100 µM
same,TGI,COLO 205 colon,64.5 µM
same,TGI,DU-145 prostate,> 100 µM
same,TGI,EKVX NSCLC,> 100 µM
same,TGI,HCC-2998 colon,> 100 µM
same,TGI,HCT-116 colon,> 100 µM
same,TGI,HCT-15 colon,> 100 µM
same,TGI,HL-60(TB) leukemia,> 100 µM
same,TGI,HOP-62 NSCLC,> 100 µM
same,TGI,HS 578T breast,> 100 µM
same,TGI,HT29 colon,> 100 µM
same,TGI,IGROV1 ovarian,> 100 µM
same,TGI,K-562 leukemia,> 100 µM
same,TGI,KM12 colon,> 100 µM
same,TGI,LOX IMVI melanoma,> 100 µM
same,TGI,M14 melanoma,> 100 µM
same,TGI,MALME-3M melanoma,> 100 µM
same,TGI,MCF7 breast,> 100 µM
same,TGI,MDA-MB-231 breast,> 100 µM
same,TGI,MDA-MB-435,> 100 µM
same,TGI,MDA-N,> 100 µM
same,TGI,MOLT-4 leukemia,> 100 µM
same,TGI,NCI-H226 lung,> 100 µM
same,TGI,NCI-H23 lung,> 100 µM
same,TGI,NCI-H522 lung,> 100 µM
same,TGI,NCI/ADR-RES ovarian,> 100 µM
same,TGI,OVCAR-5 ovarian,> 100 µM
same,TGI,OVCAR-8 ovarian,92.4 µM
same,TGI,PC-3 prostate,> 100 µM
same,TGI,RPMI-8226 leukemia,> 100 µM
same,TGI,RXF 393 renal,95.2 µM
same,TGI,SF-268 CNS,> 100 µM
same,TGI,SF-295 CNS,> 100 µM
same,TGI,SK-MEL-2 melanoma,> 100 µM
same,TGI,SK-MEL-28 melanoma,> 100 µM
same,TGI,SK-MEL-5 melanoma,> 100 µM
same,TGI,SK-OV-3 ovarian,> 100 µM
same,TGI,SN12C renal,> 100 µM
same,TGI,SNB-19 CNS,> 100 µM
same,TGI,SNB-75 CNS,> 100 µM
same,TGI,SR leukemia,> 100 µM
same,TGI,SW-620 colon,> 100 µM
same,TGI,T-47D breast,> 100 µM
same,TGI,TK-10 renal,> 100 µM
same,TGI,U251 CNS,> 100 µM
same,TGI,UACC-257 melanoma,> 100 µM
same,TGI,UACC-62 melanoma,> 100 µM
same,TGI,UO-31 renal,> 100 µM
Cc1ccc(N(Cc2ccccc2)Cc2ccccc2)cc1,TGI,786-0 renal,> 100 µM
same,TGI,A498 renal,> 100 µM
same,TGI,A549 NSCLC,> 100 µM
same,TGI,ACHN renal,> 100 µM
same,TGI,BT-549 breast,> 100 µM
same,TGI,CAKI-1 renal,> 100 µM
same,TGI,CCRF-CEM leukemia,65.4 µM
same,TGI,COLO 205 colon,> 100 µM
same,TGI,DU-145 prostate,> 100 µM
same,TGI,EKVX NSCLC,> 100 µM
same,TGI,HCT-116 colon,> 100 µM
same,TGI,HCT-15 colon,> 100 µM
same,TGI,HL-60(TB) leukemia,> 100 µM
same,TGI,HOP-62 NSCLC,> 100 µM
same,TGI,HS 578T breast,> 100 µM
same,TGI,HT29 colon,> 100 µM
same,TGI,IGROV1 ovarian,> 100 µM
same,TGI,K-562 leukemia,> 100 µM
same,TGI,KM12 colon,> 100 µM
same,TGI,LOX IMVI melanoma,> 100 µM
same,TGI,M14 melanoma,> 100 µM
same,TGI,MALME-3M melanoma,61 µM
same,TGI,MCF7 breast,> 100 µM
same,TGI,MDA-MB-231 breast,> 100 µM
same,TGI,MDA-MB-435,> 100 µM
same,TGI,MDA-N,> 100 µM
same,TGI,MOLT-4 leukemia,79.3 µM
same,TGI,NCI-H226 lung,> 100 µM
same,TGI,NCI-H23 lung,> 100 µM
same,TGI,NCI-H460 lung,> 100 µM
same,TGI,NCI-H522 lung,86.8 µM
same,TGI,NCI/ADR-RES ovarian,> 100 µM
same,TGI,OVCAR-3 ovarian,> 100 µM
same,TGI,OVCAR-4 ovarian,> 100 µM
same,TGI,OVCAR-5 ovarian,> 100 µM
same,TGI,OVCAR-8 ovarian,> 100 µM
same,TGI,PC-3 prostate,> 100 µM
same,TGI,RPMI-8226 leukemia,43.6 µM
same,TGI,RXF 393 renal,> 100 µM
same,TGI,SF-268 CNS,> 100 µM
same,TGI,SF-295 CNS,> 100 µM
same,TGI,SF-539 CNS,> 100 µM
same,TGI,SK-MEL-2 melanoma,63.3 µM
same,TGI,SK-MEL-28 melanoma,> 100 µM
same,TGI,SK-MEL-5 melanoma,> 100 µM
same,TGI,SK-OV-3 ovarian,> 100 µM
same,TGI,SN12C renal,> 100 µM
same,TGI,SNB-19 CNS,> 100 µM
same,TGI,SNB-75 CNS,> 100 µM
same,TGI,SW-620 colon,> 100 µM
same,TGI,T-47D breast,> 100 µM
same,TGI,TK-10 renal,> 100 µM
same,TGI,U251 CNS,> 100 µM
same,TGI,UACC-257 melanoma,> 100 µM
same,TGI,UACC-62 melanoma,> 100 µM
same,TGI,UO-31 renal,> 100 µM
